From ChEMBL document CHEMBL1121920, “Synthesis and biological evaluation of the methyl esters of (+)-12-fluoro-13,14-dihydroprostaglandin F2alpha and (+)-15-epi-12-fluoro-13,14-dihydroprostaglandin F2alpha” (1981)

Legend:
Gerbillinae = assay: Compound was evaluated for gerbil colon contraction relative to PGF2-alpha; format: functional
Cricetinae gen. sp. = assay: Compound was evaluated for uterine contraction relative to PGF2-alpha in hamsters; format: functional, hamster

SMILES | Potency (Gerbillinae) | Potency (Cricetinae gen. sp.)
CCCCC[C@H](O)CC[C@@H]1[C@@H](C/C=C\CCCC(=O)OC)[C@@H](O)C[C@H]1O | 0.11 | 0.95
CCCCC[C@H](O)/C=C/[C@@H]1[C@@H](C/C=C\CCCC(=O)O)[C@@H](O)C[C@H]1O [DINOPROST] | 1 | 1
CCCCC[C@@H](O)/C=C/[C@@]1(F)[C@H](O)C[C@H](O)[C@@H]1C/C=C\CCCC(=O)OC | 0.011 | 0.022
CCCCC[C@H](O)/C=C/[C@@]1(F)[C@H](O)C[C@H](O)[C@@H]1C/C=C\CCCC(=O)OC | 0.001 | 0.28
CCCCC[C@H](O)CC[C@@]1(F)[C@H](O)C[C@H](O)[C@@H]1C/C=C\CCCC(=O)OC | 0.004 | 0.016
CCCCC[C@@H](O)CC[C@@]1(F)[C@H](O)C[C@H](O)[C@@H]1C/C=C\CCCC(=O)OC | 0.001 | 0.005
